Source: patent US20090258041A1, “Protection of Oxidizable Agents” (priority 2005, published 2009)

Experiment: Stabilization of Vitamin C: spectral absorption at 265 nm after exposure to air with storage in the dark
Format: physicochemical
Conditions: Vitamin C combined with Nanotope AO7 (encapsulated AO7 1.00%, ascorbic acid 1.00% in water phase), phosphate buffer pH 6, exposure to air, 20° C.
Protocol: Aqueous solution of Vitamin C (concentration=40.5 mM), buffered at pH=6 (Phosphate buffer, previously evacuated and then flushed with Nitrogen to remove as much Oxygen as possible). a) Standalone Vitamin C: 0.7 mM b) Combination Vitamin C/Nanotope AO7: [table] Absorption measurement with Perkin Elmer Lambda 16; cuvette length d=0.1 cm Irradiation chamber Atlas CPS+; temperature of measurement=35° C. Spectral absorption of Vitamin C (Ascorbic Acid) at its maximum wavelength (Imax=265 nm); maximum extinction at time after exposure to air with storage in the dark. Experiments were done at 20° C.

With O=C1O[C@H]([C@@H](O)CO)C(O)=C1O [Vitamin C, ascorbic acid] the “protection of Vitamin C (maximum extinction at 265 nm)” value was “efficiently protected”.
